Measured values from US9850283B2, “Macrocyclic inhibitors of the PD-1/PD-L1 and CD80(B7-1)/PD-L1 protein/protein interactions” (BRISTOL-MYERS SQUIBB COMPANY, priority 2013, dated 2017).
Like-named read-outs stand apart in the source and are kept apart here. Positions of bridges follow the written chain, without caps; N, C: chain ends. Non-standard residues stand in square brackets, D forms with d. Residues, ends and D or L forms follow the SMILES beside them. Ala(indol-4-yl) = N[C@@H](Cc1cccc2[nH]ccc12)C(=O)O; Phe(3-CF3) = N[C@@H](Cc1cccc(C(F)(F)F)c1)C(=O)O; Phe(4-CH2NH2) = NCc1ccc(C[C@H](N)C(=O)O)cc1; Phe(4-Cl) = N[C@@H](Cc1ccc(Cl)cc1)C(=O)O; Phe(4-F) = N[C@@H](Cc1ccc(F)cc1)C(=O)O; Bta = N[C@@H](Cc1csc2ccccc12)C(=O)O; Hyp = O=C(O)[C@@H]1C[C@@H](O)CN1; NMeF = CN[C@@H](Cc1ccccc1)C(=O)O; tBuAla = CC(C)(C)C[C@H](N)C(=O)O; NMeNle = CCCC[C@H](NC)C(=O)O; dNle = CCCC[C@@H](N)C(=O)O; NMeA = CN[C@@H](C)C(=O)O; Dab = NCC[C@H](N)C(=O)O; Dap = NC[C@H](N)C(=O)O; Sar = CNCC(=O)O

Tests used:
Hu PD-L1/PD-1 = Hu PD-L1/PD-1 (Homo sapiens, UniProt Q9NZQ7); assay: Cell binding assay Hu PD-L1/PD-1 (Tables 11-13, cell line not given); format: cell-based
Sequence of Hu PD-L1/PD-1 (Q9NZQ7 19-290): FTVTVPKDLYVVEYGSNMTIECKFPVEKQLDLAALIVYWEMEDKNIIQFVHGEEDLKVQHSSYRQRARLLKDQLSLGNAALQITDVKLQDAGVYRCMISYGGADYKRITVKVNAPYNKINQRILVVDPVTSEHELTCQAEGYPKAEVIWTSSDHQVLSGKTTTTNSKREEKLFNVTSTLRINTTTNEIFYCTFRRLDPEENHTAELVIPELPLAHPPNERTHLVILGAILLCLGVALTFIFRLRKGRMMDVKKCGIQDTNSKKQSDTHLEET
Protocol: The ability of the macrocyclic peptides of the present disclosure to bind to Jurkat, mouse B cell line (LK35.2), and a human lung adenocarcinoma cell line (L2987) was investigated. Jurkat-PD-1 Cell Binding Assay. Phycoerythrin (PE) was covalently linked to the Ig epitope tag of human PD-L1-Ig and fluorescently-labeled PD-L1-Ig was used for binding studies with a Jurkat cell line over-expressing human PD-1 (Jurkat-PD-1). […] Cells were washed 3× in dPBS. Cells were resuspended in 200 μl of dPBS and binding was measured by flow cytometry. LK35.2-hPD-L1 Cell Binding Assay. Phycoerythrin (PE) was covalently linked to the Ig eptitope tag of human PD-1-Ig and fluorescently-labeled PD-1-Ig was used for binding studies with a mouse B cell line (LK35.2) stably over-expressing human PD-L1 (LK35.2-hPD-L1). Briefly, […] LK35.2-hPD-L1 cells were pre-incubated with inhibitor for 15 m in a 30 μl volume of RPMI supplemented with 2% fetal calf serum. 20 μl of PE-labeled PD-1-Ig (2 nM final), diluted in RPMI supplemented with 2% fetal calf serum, was dispensed on top of cells and inhibitor and binding was allowed to take place for 1 h at room temperature. Cells were washed 3× in dPBS. Cells were resuspended in 200 μl of dPBS and binding was measured by flow cytometry. L2987 Cellomics Cell Binding Assay. Phycoerythrin (PE) was covalently linked to the Ig eptitope tag of human PD-1-Ig and fluorescently-labeled PD-1-Ig was used for binding studies with a human lung adenocarcinoma cell line (L2987) which naturally expresses PD-L1. […] The following day, inhibitors were diluted in serum-free DMEM and 25 μl was dispensed on top of cells. […] Samples were incubated for 1 h at 37° C. followed by 2 washes in dPBS and fixation for 30 m with 4% paraformaldehyde. Samples were further washed 2× in dPBS. Hoechst (final 1 μg/ml) was added to final wash to stain nuclei. Plates were processed using a Cellomics […]®.

Human PD-L1/PD-1 = target: T1, Human PD-L1/PD-1 (Homo sapiens, UniProt Q9NZQ7); assay: HTRF PD-1-Ig/PD-L1-His binding assay (human PD-L1); details: cluster symbol; read-out: HTRF IC50 cluster
T1 construct: made in house; host or cells: HEK293T
T1 sequence (Q9NZQ7 with tags, fused parts or gaps): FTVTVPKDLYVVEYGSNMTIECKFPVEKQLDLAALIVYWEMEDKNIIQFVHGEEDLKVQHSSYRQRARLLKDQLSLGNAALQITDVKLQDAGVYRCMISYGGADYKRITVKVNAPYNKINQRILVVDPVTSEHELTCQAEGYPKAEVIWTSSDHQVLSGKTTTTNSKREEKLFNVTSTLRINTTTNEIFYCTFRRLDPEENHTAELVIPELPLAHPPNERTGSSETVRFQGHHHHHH
Method in brief: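 Soluble Fc-fused PD-1 and His-tagged PD-L1 (truncated before the transmembrane region) were combined in dPBS with 0.1% (w/v) BSA and 0.05% (v/v) Tween-20. Binding was read by HTRF using europium cryptate anti-Ig antibody (1 nM final) and APC anti-His antibody (20 nM final).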

[1] = target: T2, LK35.2-hPD-L1 cells / PE-labeled PD-1-Ig (Homo sapiens, UniProt Q9NZQ7); assay: LK35.2-hPD-L1 cell binding high-content screening assay; format: cell-based; details: cluster symbol, read-out: CBA IC50 cluster
T2 construct: expressed in transfected cells; host or cells: LK35.2 mouse B cell line
T2 sequence (Q9NZQ7 19-290): as the sequence (Q9NZQ7 19-290) above
Method in brief: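 Readout: high-content imaging of PE-PD-1-Ig bound to LK35.2-hPD-L1 cells. Cells plated overnight (RPMI/10% FCS); compound + 1 nM PE-PD-1-Ig, 1 h, 37 °C; 3× dPBS wash before imaging.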

[2] = cell binding assay, cell line not given
[3] = cell line of CBA not given (LK35.2-hPD-L1 or 293T-hPD-L1)

SMILES | IC50 (Hu PD-L1/PD-1) [nM] | IC50 (Human PD-L1/PD-1) [nM] | IC50 [1, 2] [nM] | IC50 [1, 3] [nM]
CCCC[C@H]1C(=O)N(C)[C@@H](CCCC)C(=O)N[C@@H](CCCNC(=N)N)C(=O)N[C@H](C(=O)NCC(N)=O)CSCC(=O)N[C@@H](Cc2ccccc2)C(=O)N(C)[C@@H](C)C(=O)N[C@@H](CC(N)=O)C(=O)N[C@@H](C)C(=O)N[C@@H](Cc2cnc[nH]2)C(=O)N[C@@H](CC(C)C)C(=O)N(C)CC(=O)N[C@@H](Cc2c[nH]c3ccccc23)C(=O)N[C@@H](CO)C(=O)N[C@@H](Cc2c[nH]c3ccccc23)C(=O)N1C [Compound No. 9] ({CH2CO}-F[NMeA]NAHL[Sar]WSW[NMeNle][NMeNle]RCG-NH2; thioether N-14) | 71 | – | – | –
CCCC[C@H]1C(=O)N(C)[C@@H](CCCC)C(=O)N[C@@H](CCCNC(=N)N)C(=O)N[C@H](C(=O)NCC(N)=O)CSCC(=O)N[C@@H](Cc2ccccc2)C(=O)N(C)[C@@H](C)C(=O)N[C@@H](CC(N)=O)C(=O)N2CCC[C@H]2C(=O)N[C@@H](Cc2cnc[nH]2)C(=O)N[C@@H](CC(C)C)C(=O)N(C)CC(=O)N[C@@H](Cc2c[nH]c3ccccc23)C(=O)N[C@@H](CO)C(=O)N[C@@H](CC(C)C)C(=O)N1C [Compound No. 63] ({CH2CO}-F[NMeA]NPHL[Sar]WSL[NMeNle][NMeNle]RCG-NH2; thioether N-14) | > 10000 | – | – | –
CCCC[C@H]1NC(=O)[C@H](Cc2c[nH]c3ccccc23)NC(=O)[C@H](CO)NC(=O)[C@H](Cc2c[nH]c3ccccc23)NC(=O)CN(C)C(=O)[C@H](CC(C)C)NC(=O)[C@H](Cc2cnc[nH]2)NC(=O)[C@@H]2CCCN2C(=O)[C@H](CC(N)=O)NC(=O)[C@H](C)N(C)C(=O)[C@H](Cc2ccccc2)NC(=O)CSC[C@@H](C(=O)NCC(N)=O)NC(=O)[C@H](CCCNC(=N)N)NC(=O)[C@H](CCCC)N(C)C1=O [Compound No. 70] ({CH2CO}-F[NMeA]NPHL[Sar]WSW[dNle][NMeNle]RCG-NH2; thioether N-14) | > 10000 | – | – | –
CCCC[C@H]1C(=O)N(C)[C@@H](CCCC)C(=O)N[C@@H](CCCNC(=N)N)C(=O)N[C@@H](C(=O)NCC(N)=O)CSCC(=O)N[C@@H](Cc2ccc(F)cc2)C(=O)N(C)[C@@H](C)C(=O)N[C@@H](CC(N)=O)C(=O)N2CCC[C@H]2C(=O)N[C@@H](Cc2cnc[nH]2)C(=O)N[C@@H](CC(C)C)C(=O)N(C)CC(=O)N[C@@H](Cc2c[nH]c3ccccc23)C(=O)N[C@@H](CO)C(=O)N[C@@H](Cc2c[nH]c3ccccc23)C(=O)N1C [Compound No. 32] ({CH2CO}-[Phe(4-F)][NMeA]NPHL[Sar]WSW[NMeNle][NMeNle]R[dC]G-NH2; thioether N-14) | 25 | – | – | –
CCCC[C@H]1C(=O)N(C)CC(=O)N[C@@H](CC(=O)O)C(=O)N[C@@H](C(C)C)C(=O)N(C)[C@@H](Cc2ccccc2)C(=O)N[C@@H](Cc2ccc(O)cc2)C(=O)N(C)CC(=O)N[C@@H](Cc2cccc3[nH]ccc23)C(=O)N[C@@H](Cc2ccc(O)cc2)C(=O)N[C@@H](CC(C)C)C(=O)N[C@H](C(=O)NCC(N)=O)CSCC(=O)N[C@@H](Cc2ccccc2)C(=O)N(C)[C@@H](Cc2ccccc2)C(=O)N1C [Example 3071] ({CH2CO}-F[NMeF][NMeNle][Sar]DV[NMeF]Y[Sar][Ala(indol-4-yl)]YLCG-NH2; thioether N-13) | – | 6.76 to 30.3 | – | 4.78 to 72.9
CCCC[C@H]1C(=O)N(C)[C@@H](CCCC)C(=O)N[C@@H](CCCNC(=N)N)C(=O)N[C@H](C(=O)NCC(N)=O)CSCC(=O)N[C@@H](Cc2ccccc2)C(=O)N(C)[C@@H](C)C(=O)N[C@@H](CC(N)=O)C(=O)N2CCC[C@H]2C(=O)N[C@@H](Cc2cnc[nH]2)C(=O)N[C@@H](CC(C)C)C(=O)N(C)CC(=O)N[C@@H](Cc2cccc(C(F)(F)F)c2)C(=O)N[C@@H](CO)C(=O)N[C@@H](Cc2c[nH]c3ccccc23)C(=O)N1C [Example 1018] ({CH2CO}-F[NMeA]NPHL[Sar][Phe(3-CF3)]SW[NMeNle][NMeNle]RCG-NH2; thioether N-14) | – | > 30.5 | – | > 74.3
CCCC[C@H]1C(=O)N(C)CC(=O)N[C@@H](CC(=O)O)C(=O)N[C@@H](C(C)C)C(=O)N(C)[C@@H](Cc2ccccc2)C(=O)N[C@@H](Cc2ccc(CN)cc2)C(=O)N(C)CC(=O)N[C@@H](Cc2csc3ccccc23)C(=O)N[C@@H](Cc2ccc(O)cc2)C(=O)N[C@@H](CC(C)C)C(=O)N[C@H](C(=O)NCC(N)=O)CSCC(=O)N[C@@H](Cc2ccc(Cl)cc2)C(=O)N(C)[C@@H](Cc2ccccc2)C(=O)N1C [Example 3119] ({CH2CO}-[Phe(4-Cl)][NMeF][NMeNle][Sar]DV[NMeF][Phe(4-CH2NH2)][Sar][Bta]YLCG-NH2; thioether N-13) | – | 6.76 to 30.3 | – | 4.78 to 72.9
CC(C)C[C@@H]1NC(=O)[C@H](Cc2ccc(O)cc2)NC(=O)[C@H](Cc2c[nH]c3ccccc23)NC(=O)CN(C)C(=O)[C@H](Cc2ccc(O)cc2)NC(=O)[C@H](Cc2ccccc2)N(C)C(=O)[C@H](C(C)C)NC(=O)[C@H](CC(=O)O)NC(=O)CN(C)C(=O)[C@H](Cc2ccc(O)cc2)N(C)C(=O)[C@H](Cc2ccccc2)N(C)C(=O)[C@H](Cc2ccccc2)NC(=O)CSC[C@@H](C(=O)NCC(N)=O)NC1=O [Example 3060-A] (HELM PEPTIDE1{[O=C(C[*:3])[*:2]].F.[meF].[meY].[Sar].D.V.[meF].Y.[Sar].W.Y.L.C.G.[am]}$PEPTIDE1,PEPTIDE1,1:R3-14:R3$$$V2.0) | – | 6.76 to 30.3 | – | 4.78 to 72.9

Second part, the molecule after the results:

IC50 (Hu PD-L1/PD-1) [nM] | IC50 (Human PD-L1/PD-1) [nM] | IC50 [1, 2] [nM] | IC50 [1, 3] [nM] | SMILES
– | 0.385 to 6.74 | 0.158 to 4.71 | – | CCCC[C@H]1C(=O)N(C)[C@@H](CCCC)C(=O)N[C@@H](CC(C)C)C(=O)N[C@H](C(=O)NCC(N)=O)CSCC(=O)N[C@@H](Cc2ccc(O)cc2)C(=O)N(C)[C@@H](C)C(=O)N[C@@H](CC(N)=O)C(=O)N2CCC[C@H]2C(=O)N[C@@H](CO)C(=O)N[C@@H](CCC(=O)O)C(=O)N2C[C@H](O)C[C@H]2C(=O)N[C@@H](Cc2c[nH]c3ccccc23)C(=O)N[C@@H](CCN)C(=O)N[C@@H](Cc2c[nH]c3ccccc23)C(=O)N1C [Example 5074] ({CH2CO}-Y[NMeA]NPSE[Hyp]W[Dab]W[NMeNle][NMeNle]LCG-NH2; thioether N-14)
– | 0.385 to 6.74 | 4.78 to 72.9 | – | CCCC[C@H]1C(=O)N[C@@H](CCCNC(=N)N)C(=O)NC(C(=O)NCC(N)=O)CSCC(=O)N[C@@H](Cc2ccc(O)cc2)C(=O)N(C)[C@@H](C)C(=O)N[C@@H](CC(N)=O)C(=O)N2CCC[C@H]2C(=O)N[C@@H](Cc2cnc[nH]2)C(=O)N[C@@H](CC(C)C)C(=O)N2C[C@H](O)C[C@H]2C(=O)N[C@@H](Cc2c[nH]c3ccccc23)C(=O)N[C@@H](CO)C(=O)N[C@@H](Cc2c[nH]c3ccccc23)C(=O)N(C)[C@@H](CCOC)C(=O)N1C (some centres unmarked) [Example 9004]
– | > 30.5 | > 74.3 | – | CCCC[C@H]1C(=O)N(C)CC(=O)N[C@@H](CCCNC(=N)N)C(=O)N[C@H](C(=O)NCC(N)=O)CSCC(=O)N[C@@H](Cc2ccccc2)C(=O)N(C)[C@@H](C)C(=O)N[C@@H](CC(N)=O)C(=O)N2CCC[C@H]2C(=O)N[C@@H](Cc2cnc[nH]2)C(=O)N[C@@H](CC(C)C)C(=O)N(C)CC(=O)N[C@@H](Cc2c[nH]c3ccccc23)C(=O)N[C@@H](CO)C(=O)N[C@@H](Cc2c[nH]c3ccccc23)C(=O)N1C [Example 5027] (HELM PEPTIDE1{[O=C(C[*:3])[*:2]].F.[meA].N.P.H.L.[Sar].W.S.W.[CCCC[C@@H](C(=O)[*:2])N(C)[*:1]].[Sar].R.C.G.[am]}$PEPTIDE1,PEPTIDE1,1:R3-15:R3$$$V2.0)
– | 0.385 to 6.74 | 0.158 to 4.71 | – | CCCC[C@H]1C(=O)N(C)[C@@H](CCCC)C(=O)N[C@@H](CC(C)C)C(=O)N[C@H](C(=O)NCC(N)=O)CSCC(=O)N[C@@H](Cc2ccc(O)cc2)C(=O)N(C)[C@@H](C)C(=O)N[C@@H](CC(N)=O)C(=O)N2CCC[C@H]2C(=O)N[C@@H](CN)C(=O)N[C@@H](CC(C)(C)C)C(=O)N2C[C@H](O)C[C@H]2C(=O)N[C@@H](Cc2c[nH]c3ccccc23)C(=O)N[C@@H](CO)C(=O)N[C@@H](Cc2c[nH]c3ccccc23)C(=O)N1C [Example 5083] ({CH2CO}-Y[NMeA]NP[Dap][tBuAla][Hyp]WSW[NMeNle][NMeNle]LCG-NH2; thioether N-14)
